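Following 48 hours of exposure in 96-well plates, responses at five concentrations were used to interpolate endpoints linearly. Here, GI50 denotes the concentration required for 50% inhibition of growth. TGI is the concentration that stops growth completely.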
How the values were obtained:
Assay in all cases: growth of human tumour cells (NCI), 48 h; in the data active = GI50 below about 0.43 µM; inactive = the rest
786-0 renal = tested on: 786-0 renal
A498 renal = tested on: A498 renal
A549 NSCLC = tested on: A549 NSCLC
ACHN renal = tested on: ACHN renal
BT-549 breast = tested on: BT-549 breast
CAKI-1 renal = tested on: CAKI-1 renal
CCRF-CEM leukemia = tested on: CCRF-CEM leukemia
COLO 205 colon = tested on: COLO 205 colon
DU-145 prostate = tested on: DU-145 prostate
HCC-2998 colon = tested on: HCC-2998 colon
HCT-116 colon = tested on: HCT-116 colon
HCT-15 colon = tested on: HCT-15 colon
HL-60(TB) leukemia = tested on: HL-60(TB) leukemia
HOP-62 NSCLC = tested on: HOP-62 NSCLC
HOP-92 NSCLC = tested on: HOP-92 NSCLC
HS 578T breast = tested on: HS 578T breast
HT29 colon = tested on: HT29 colon
IGROV1 ovarian = tested on: IGROV1 ovarian
K-562 leukemia = tested on: K-562 leukemia
KM12 colon = tested on: KM12 colon
LOX IMVI melanoma = tested on: LOX IMVI melanoma
M14 melanoma = tested on: M14 melanoma
MALME-3M melanoma = tested on: MALME-3M melanoma
MCF7 breast = tested on: MCF7 breast
MDA-MB-231 breast = tested on: MDA-MB-231 breast
MDA-MB-435 = tested on: MDA-MB-435
MOLT-4 leukemia = tested on: MOLT-4 leukemia
NCI-H226 lung = tested on: NCI-H226 lung
NCI-H23 lung = tested on: NCI-H23 lung
NCI-H460 lung = tested on: NCI-H460 lung
NCI-H522 lung = tested on: NCI-H522 lung
NCI/ADR-RES ovarian = tested on: NCI/ADR-RES ovarian
OVCAR-3 ovarian = tested on: OVCAR-3 ovarian
OVCAR-4 ovarian = tested on: OVCAR-4 ovarian
OVCAR-5 ovarian = tested on: OVCAR-5 ovarian
OVCAR-8 ovarian = tested on: OVCAR-8 ovarian
PC-3 prostate = tested on: PC-3 prostate
RPMI-8226 leukemia = tested on: RPMI-8226 leukemia
RXF 393 renal = tested on: RXF 393 renal
SF-268 CNS = tested on: SF-268 CNS
SF-295 CNS = tested on: SF-295 CNS
SF-539 CNS = tested on: SF-539 CNS
SK-MEL-2 melanoma = tested on: SK-MEL-2 melanoma
SK-MEL-28 melanoma = tested on: SK-MEL-28 melanoma
SK-MEL-5 melanoma = tested on: SK-MEL-5 melanoma
SK-OV-3 ovarian = tested on: SK-OV-3 ovarian
SN12C renal = tested on: SN12C renal
SNB-19 CNS = tested on: SNB-19 CNS
SNB-75 CNS = tested on: SNB-75 CNS
SR leukemia = tested on: SR leukemia
SW-620 colon = tested on: SW-620 colon
T-47D breast = tested on: T-47D breast
TK-10 renal = tested on: TK-10 renal
U251 CNS = tested on: U251 CNS
UACC-257 melanoma = tested on: UACC-257 melanoma
UACC-62 melanoma = tested on: UACC-62 melanoma
UO-31 renal = tested on: UO-31 renal

Cn1cc(C2=C(Sc3ccccc3)C(=O)NC2=O)c2ccccc21
> 16.9 µM: TGI (HCT-116 colon)
> 20.6 µM: TGI (MCF7 breast)
> 14.3 µM: TGI (UO-31 renal)
> 17.2 µM: TGI (T-47D breast)
> 20.4 µM: TGI (TK-10 renal)
> 17.6 µM: TGI (RXF 393 renal)
> 22.7 µM: TGI (SK-MEL-28 melanoma)
> 19.1 µM: TGI (HCT-15 colon)
> 16.5 µM: TGI (SW-620 colon)
23.5 µM: TGI (HL-60(TB) leukemia)
> 25 µM: TGI (786-0 renal) | TGI (A498 renal) | TGI (A549 NSCLC) | TGI (CAKI-1 renal) | TGI (CCRF-CEM leukemia) | TGI (COLO 205 colon) | TGI (DU-145 prostate) | TGI (HOP-62 NSCLC) | TGI (HOP-92 NSCLC) | TGI (HS 578T breast) | TGI (HT29 colon) | TGI (IGROV1 ovarian) | TGI (K-562 leukemia) | TGI (KM12 colon) | TGI (M14 melanoma) | TGI (MDA-MB-231 breast) | TGI (MDA-MB-435) | TGI (MOLT-4 leukemia) | TGI (NCI-H226 lung) | TGI (NCI-H23 lung) | TGI (NCI-H460 lung) | TGI (NCI/ADR-RES ovarian) | TGI (OVCAR-4 ovarian) | TGI (OVCAR-5 ovarian) | TGI (OVCAR-8 ovarian) | TGI (PC-3 prostate) | TGI (RPMI-8226 leukemia) | TGI (SF-268 CNS) | TGI (SF-295 CNS) | TGI (SF-539 CNS) | TGI (SK-MEL-5 melanoma) | TGI (SK-OV-3 ovarian) | TGI (SN12C renal) | TGI (SNB-19 CNS) | TGI (SNB-75 CNS) | TGI (SR leukemia) | TGI (U251 CNS) | TGI (UACC-62 melanoma)
> 18.2 µM: TGI (HCC-2998 colon)
> 20.2 µM: TGI (MALME-3M melanoma)
> 21.8 µM: TGI (SK-MEL-2 melanoma)
> 21.2 µM: TGI (UACC-257 melanoma)
inactive: GI50 (786-0 renal) > 16.4 µM | GI50 (A498 renal) > 23.1 µM | GI50 (A549 NSCLC) > 22.4 µM | GI50 (ACHN renal) 6.23 µM | GI50 (BT-549 breast) 9.49 µM | GI50 (CAKI-1 renal) > 18.1 µM | GI50 (CCRF-CEM leukemia) 7.7 µM | GI50 (COLO 205 colon) > 16.2 µM | GI50 (DU-145 prostate) 13.8 µM | GI50 (HCC-2998 colon) > 12.3 µM | GI50 (HCT-116 colon) 7.41 µM | GI50 (HCT-15 colon) 7.87 µM | GI50 (HL-60(TB) leukemia) 8.4 µM | GI50 (HOP-62 NSCLC) > 25 µM | GI50 (HOP-92 NSCLC) 24.5 µM | GI50 (HS 578T breast) > 18.2 µM | GI50 (HT29 colon) > 18.7 µM | GI50 (IGROV1 ovarian) 10.5 µM | GI50 (K-562 leukemia) 12.9 µM | GI50 (KM12 colon) > 25 µM | GI50 (LOX IMVI melanoma) 4.7 µM | GI50 (M14 melanoma) 24.2 µM | GI50 (MALME-3M melanoma) > 13.2 µM | GI50 (MCF7 breast) 7.83 µM | GI50 (MDA-MB-231 breast) 12.1 µM | GI50 (MDA-MB-435) 10 µM | GI50 (MOLT-4 leukemia) 7.9 µM | GI50 (NCI-H226 lung) > 25 µM | GI50 (NCI-H23 lung) > 22.2 µM | GI50 (NCI-H460 lung) > 25 µM | GI50 (NCI-H522 lung) 3.29 µM | GI50 (NCI/ADR-RES ovarian) > 25 µM | GI50 (OVCAR-3 ovarian) 9.57 µM | GI50 (OVCAR-4 ovarian) > 18.3 µM | GI50 (OVCAR-5 ovarian) > 25 µM | GI50 (OVCAR-8 ovarian) > 14.2 µM | GI50 (PC-3 prostate) > 25 µM | GI50 (RPMI-8226 leukemia) 9.19 µM | GI50 (RXF 393 renal) 7.2 µM | GI50 (SF-268 CNS) > 15.2 µM | GI50 (SF-295 CNS) > 25 µM | GI50 (SF-539 CNS) > 25 µM | GI50 (SK-MEL-2 melanoma) > 13.6 µM | GI50 (SK-MEL-28 melanoma) > 12.8 µM | GI50 (SK-MEL-5 melanoma) > 15.1 µM | GI50 (SK-OV-3 ovarian) > 25 µM | GI50 (SN12C renal) > 14.9 µM | GI50 (SNB-19 CNS) > 25 µM | GI50 (SNB-75 CNS) > 25 µM | GI50 (SR leukemia) 9.81 µM | GI50 (SW-620 colon) 9.69 µM | GI50 (T-47D breast) 7.56 µM | GI50 (TK-10 renal) > 13.6 µM | GI50 (U251 CNS) > 25 µM | GI50 (UACC-257 melanoma) > 12 µM | GI50 (UACC-62 melanoma) > 13.7 µM | GI50 (UO-31 renal) 8.84 µM
> 22.5 µM: TGI (OVCAR-3 ovarian)
> 17.3 µM: TGI (ACHN renal)
8.44 µM: TGI (NCI-H522 lung)
10.2 µM: TGI (LOX IMVI melanoma)
> 20.7 µM: TGI (BT-549 breast)
